Experimental findings from ChEMBL document CHEMBL1817617, “Novel macrocyclic C-aryl glucoside SGLT2 inhibitors as potential antidiabetic agents” (Bioorg Med Chem, 2011) are described below.

Broadly, the IC50 is the concentration at which inhibition is half-maximal.

The target of one assay is T1, Sodium/glucose cotransporter 2 (Homo sapiens, UniProt P31639).
T1 sequence (P31639 whole entry): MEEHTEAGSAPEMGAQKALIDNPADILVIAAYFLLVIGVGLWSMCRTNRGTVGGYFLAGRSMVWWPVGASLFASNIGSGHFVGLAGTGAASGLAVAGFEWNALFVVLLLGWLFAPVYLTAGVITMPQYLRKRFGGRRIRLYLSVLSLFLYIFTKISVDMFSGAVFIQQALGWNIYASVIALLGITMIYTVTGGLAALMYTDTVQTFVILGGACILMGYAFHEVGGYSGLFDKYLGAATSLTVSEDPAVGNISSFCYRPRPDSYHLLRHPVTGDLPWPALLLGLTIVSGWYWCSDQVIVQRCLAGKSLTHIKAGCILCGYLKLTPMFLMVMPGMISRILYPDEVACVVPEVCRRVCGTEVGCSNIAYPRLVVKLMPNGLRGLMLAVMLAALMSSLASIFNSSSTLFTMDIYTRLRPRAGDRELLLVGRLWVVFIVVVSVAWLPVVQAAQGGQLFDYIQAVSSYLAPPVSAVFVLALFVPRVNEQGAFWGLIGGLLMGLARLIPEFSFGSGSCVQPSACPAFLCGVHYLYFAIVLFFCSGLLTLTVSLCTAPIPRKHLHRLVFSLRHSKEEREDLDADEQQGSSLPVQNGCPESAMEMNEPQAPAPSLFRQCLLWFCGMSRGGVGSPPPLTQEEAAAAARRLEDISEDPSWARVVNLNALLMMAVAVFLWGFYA
Put plainly: Inhibition of human SGLT2 expressed in CHO cells assessed as reduction of [14C]-labeled AMG after 2 hrs by liquid scintillation counting. The assay is classed as cell-based.
Consider `CCOc1ccc(Cc2cc3c(cc2Cl)OCCCOC[C@H]2O[C@@H]3[C@H](O)[C@@H](O)[C@@H]2O)cc1`, for which the IC50 stood at 2.95 nM.
Same read-out and setting: in the case of `CCOc1ccc(Cc2cc3c(cc2Cl)OCCOC[C@H]2O[C@@H]3[C@H](O)[C@@H](O)[C@@H]2O)cc1` it was 1.34 nM.
On the same count and under the same terms, the same measure for `CCc1ccc(Cc2cc3c(cc2Cl)OCCCOC[C@H]2O[C@@H]3[C@H](O)[C@@H](O)[C@@H]2O)cc1`: 1.59 nM.

The next assay relates to Rattus norvegicus. Description: Antidiabetic activity in Sprague-Dawley rat assessed as induction of urinary glucose excretion per 200 gram of body weight at 1 mg/kg, po. Type of assay: functional, Urine.
In the case of `CCOc1ccc(Cc2cc([C@@H]3O[C@H](CO)[C@@H](O)[C@H](O)[C@H]3O)ccc2Cl)cc1` [DAPAGLIFLOZIN], the Activity came out at 1648 mg.
Still for that read-out and setting: the same measure for `CCc1ccc(Cc2cc3c(cc2Cl)OCCCCCOC[C@H]2O[C@@H]3[C@H](O)[C@@H](O)[C@@H]2O)cc1`: 116 mg; for `CCOc1ccc(Cc2cc3c(cc2Cl)OCCCCCOC[C@H]2O[C@@H]3[C@H](O)[C@@H](O)[C@@H]2O)cc1`: 226 mg.
